Experimental data taken from US10940139B2, “Compounds that interact with the Ras superfamily for the treatment of cancers, inflammatory diseases, rasopathies, and fibrotic disease” (Shy Therapeutics LLC, priority 2017, dated 2021).

Columns and labels:
[1] = tested on: IL6 production in RAW 264.7 macrophage cell line; assay: Mouse IL6 quantification assay (LPS-stimulated macrophages, ELISA); assay type: cell-based; conditions: RAW264.7, RAW 264.7 murine leukemia virus transformed macrophage cell lines, LPS stimulation, read-out: IL-6 % Inhibition at 30 μM
[2] = tested on: TNFα production in RAW 264.7 macrophage cell line; assay: Mouse TNF alpha quantification assay (LPS-stimulated macrophages, ELISA); assay type: cell-based; conditions: RAW264.7, RAW 264.7 murine leukemia virus transformed macrophage cell lines, LPS stimulation, read-out: TNF-α % Inhibition at 30 μM

Row | Compound | inhibition at 30 µM [1] [%] | inhibition at 30 µM [2] [%]
1 | Cc1nc(-c2ccccn2)nc(O)c1CCC(=O)Nc1cc(F)ccc1F [drawing 2032] | 1 to 25 | 1 to 25
2 | O=C(CN1CCN(c2nc(-c3ccccn3)nc3sc(-c4ccccc4)cc23)CC1)N1CCCC1 [drawing 2143] | 76 to 100 | 76 to 100
3 | O=C(c1csc2c(O)nc(-c3ccccn3)nc12)N1CCC(N2CCOCC2)CC1 [drawing 2105] | 1 to 25 | 0
4 | O=C(Nc1nnc(-c2ccccn2)[nH]1)c1ccc(NC(=O)c2ccccn2)cc1 [drawing 1980] | 0 | 1 to 25
5 | Cc1ccc(O)c(CN(C)Cc2nccn2Cc2ccccc2)n1 [drawing 2050] | 1 to 25 | 0
6 | Cn1cc(C2CN(C(=O)c3csc4c(O)nc(-c5ccccn5)nc34)CCN2)cn1 (stereo not drawn) [drawing 2201] | 76 to 100 | 76 to 100
7 | CS(=O)(=O)Cc1ccc(C(=O)Nc2nc(-c3ccccn3)cs2)cc1 [drawing 2013] | 0 | 1 to 25
8 | Oc1nc(-c2ccccn2)nc2scc(Br)c12 [drawing 2128] | 76 to 100 | 76 to 100
9 | CC1(N)CCN(C(=O)c2csc3c(O)nc(-c4ccccn4)nc23)CC1 [drawing 2111] | 1 to 25 | 0
10 | COc1ccc(N2CCN(C(=O)c3csc4c(O)nc(-c5ccccn5)nc34)CC2)cc1O [drawing 2213] | 26 to 50 | 0
11 | CCOC(=O)NC1CCN(C(=O)c2csc3c(O)nc(N)nc23)CC1 [drawing 2095] | 0 | 1 to 25
12 | Cc1nnc(C(Nc2nc(-c3ccccn3)nc3scc(-c4ccccc4)c23)c2ccccc2)n1C (stereo not drawn) [drawing 2133] | 76 to 100 | 76 to 100
13 | O=C(O)c1cc2nc(-c3ccccn3)nc(O)c2s1 [drawing 2243] | 1 to 25 | 1 to 25
14 | Nc1nc(O)c2scc(-c3ccccc3Cl)c2n1 [drawing 2119] | 26 to 50 | 0
15 | O=C(Cc1cccc(F)c1)Nc1nc(-c2ccccn2)cs1 [drawing 2018] | 1 to 25 | 1 to 25
16 | CC(CO)Nc1nc(-c2nccn2C)nc2sc(-c3ccccc3)c(-c3ccccc3)c12 (stereo not drawn) [drawing 2405] | 51 to 75 | 1 to 25
17 | Cc1sc2nc(N)nc(O)c2c1C [drawing 2165] | 1 to 25 | 1 to 25
18 | Oc1nc(-c2ccccn2)nc2c(Br)csc12 [drawing 2100] | 76 to 100 | 76 to 100
19 | CCOCCOc1nc(-c2nccn2C)nc2sc(-c3ccccc3)c(-c3ccccc3)c12 [drawing 2399] | 1 to 25 | 26 to 50
20 | O=C(Nc1nc(-c2ccccn2)cs1)c1ccc2nccnc2c1 [drawing 2011] | 51 to 75 | 0
21 | O=C(Nc1nnc(-c2ccccn2)[nH]1)C1=NOC(c2ccccc2)C1 (stereo not drawn) [drawing 1992] | 26 to 50 | 1 to 25
22 | COc1ccccc1-c1csc2c(O)nc(-c3ccccn3)nc12 [drawing 2262] | 76 to 100 | 51 to 75
23 | CC(C)OCCNc1nc(-c2nccn2C)nc2sc(-c3ccccc3)c(-c3ccccc3)c12 [drawing 2394] | 1 to 25 | 1 to 25
24 | CS(=O)(=O)N1CCCc2cc(C(=O)Nc3nnc(-c4ccccn4)[nH]3)ccc21 [drawing 2002] | 26 to 50 | 1 to 25
25 | COc1cccc(CCC(=O)Nc2nnc(-c3ccccn3)[nH]2)c1 [drawing 1928] | 0 | 1 to 25
26 | O=C(Cn1c(=O)[nH]c2ccccc21)Nc1nnc(-c2ccccn2)[nH]1 [drawing 1987] | 1 to 25 | 1 to 25
27 | COCCNc1nc(-c2cn(C)cn2)nc2sc(-c3ccccc3)c(-c3ccccc3)c12 [drawing 2410] | 76 to 100 | 76 to 100
